Values quoted from earlier work in patent US5369112A, “Method of treating cataracts caused by active oxygen” (Mitsubishi Gas Chemical Company, Inc., priority 1991, dated 1994).

Legend:
[1] = 109th meeting of Japan Pharmacological Society, 1989; cited from earlier work
[2] = tested on: liver diseases caused by carbon tetrachloride, endotoxin shock and cataracts caused by hydrocortisone; details: Watanabe 1988; Matsumoto 1989; Nishigoori 1989; cited from earlier work
kidney = details: Watanabe et al, Hiroshima J. Med. Sci.; cited from earlier work

## O=C(O)c1cc(C(=O)O)c2c(n1)C(=O)C(=O)c1cc(C(=O)O)[nH]c1-2 [PQQ, pyrrolo quinoline quinone]
[1]
  active oxygen scavenging action: strong active oxygen scavenging action
[2]
  inhibition of diseases: inhibits liver diseases caused by carbon tetrachloride, endotoxin shock and cataracts caused by hydrocortisone
kidney
  kidney toxicity: has kidney toxicity
